Legend:
[1] = target: T1, Amine oxidase [copper-containing] 3 (Homo sapiens, UniProt Q16853); experiment: Inhibitory Activity of Human Recombinant SSAO/VAP-1
T1 sequence (Q16853 whole entry): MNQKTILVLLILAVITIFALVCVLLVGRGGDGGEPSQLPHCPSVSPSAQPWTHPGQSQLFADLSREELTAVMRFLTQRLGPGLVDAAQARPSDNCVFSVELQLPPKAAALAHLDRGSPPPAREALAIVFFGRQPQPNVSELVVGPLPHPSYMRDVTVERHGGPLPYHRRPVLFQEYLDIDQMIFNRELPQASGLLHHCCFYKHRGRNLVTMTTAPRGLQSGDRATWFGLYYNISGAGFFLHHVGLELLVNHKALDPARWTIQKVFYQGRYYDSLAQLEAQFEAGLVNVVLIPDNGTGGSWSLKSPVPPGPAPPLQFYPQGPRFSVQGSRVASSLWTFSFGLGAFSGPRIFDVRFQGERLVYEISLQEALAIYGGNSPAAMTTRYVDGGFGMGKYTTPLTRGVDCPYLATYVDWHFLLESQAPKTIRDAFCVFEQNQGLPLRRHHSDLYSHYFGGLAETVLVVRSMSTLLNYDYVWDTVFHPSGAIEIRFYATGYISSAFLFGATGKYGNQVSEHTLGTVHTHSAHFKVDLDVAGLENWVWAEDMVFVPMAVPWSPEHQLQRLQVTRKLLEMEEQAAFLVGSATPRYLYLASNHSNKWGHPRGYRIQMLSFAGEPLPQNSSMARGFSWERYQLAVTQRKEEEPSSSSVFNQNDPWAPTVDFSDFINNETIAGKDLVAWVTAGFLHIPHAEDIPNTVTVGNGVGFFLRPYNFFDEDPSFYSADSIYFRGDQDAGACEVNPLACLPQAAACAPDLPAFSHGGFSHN
Source text: Test purpose: The following method is used to determine the inhibitory activity of the compounds in the examples of the present invention on human recombinant SSAO/VAP-1.Test Materials:Human recombinant SSAO/VAP-1 (VAP-1, human) was purchased from Sigma, Cat. No. SRP6241;Amplex Red Monoamine Oxidase Assay Kit was purchased from Invitrogen, Cat. No. A12214;384-well plate was purchased from Corning, Cat. No. 6005174;Amplex Red Hydrogen PeroxidePeroxidase Assay Kit was purchased from Invitrogen, Cat. No. A22188.Benzylamine hydrochloride was purchased from Sigma, Cat. No. B5136-25G;DMSO (Dimethyl Sulfoxide) was purchased from Sigma, Cat. No. D2650-100ML;Test Method:The test compound was dissolved in DMSO and diluted 4 times to a total of 10 concentrations. In a 384-well plate, 25 μL of human recombinant SSAO/VAP-1 (1.6 μg/mL) was added into each well. 100 nL of test compounds at different concentrations were added to each well containing human recombinant SSAO/VAP-1, and the plate was incubated at room temperature for 30 min. […] After 60 min, PerkinElmer's Envision was used to read the fluorescence value (RFU) under excitation at 530-560 nm and emission at 590 nm.

[2] = target: T2, Diamine oxidase [copper-containing] (Homo sapiens, UniProt P19801); experiment: Inhibition of DAO (Diamine Oxidase)
T2 construct: gene AOC1
Method: Test purpose: The following method is used to determine the selective inhibitory activity of the compound of the present invention on DAO.Test Materials:Human recombinant DAO (Recombinant Human ABP-1/DAO) was purchased from R&D, Cat. No. 8298-AO;Amplex Red Hydrogen PeroxidePeroxidase Assay Kit was purchased from Invitrogen, Cat. No. A22188;1,4-Diaminobutane dihydrochloride was purchased from Aladdin, Cat. No. D106194-25G.Test Method:The test compound was dissolved in DMSO and diluted 5 times to a total of 6 concentrations. In a 384-well plate, 24 μL of human recombinant DAO (1 μg/mL) was added into each well. 1 μL of test compounds at different concentrations were added to each well containing human recombinant DAO, and the plate was incubated at 37° C. for 30 min. After incubating for 30 min, 25 μL of Amplex Red Hydrogen Peroxide Peroxidase Assay Kit (containing 100 μM Amplex Red and 0.2 U/ml HRP) containing 1 M 1,4-butanediamine dihydrochloride was added into the corresponding wells, and the plate was incubated in the dark at 37° C. for 30 min. After 30 min, PHERAstar FSX microplate reader of BMG LABTECH was used to read the fluorescence value (RFU) under excitation at 540 nm and emission at 580 nm.

T2 sequence (P19801 20-751 limits assumed): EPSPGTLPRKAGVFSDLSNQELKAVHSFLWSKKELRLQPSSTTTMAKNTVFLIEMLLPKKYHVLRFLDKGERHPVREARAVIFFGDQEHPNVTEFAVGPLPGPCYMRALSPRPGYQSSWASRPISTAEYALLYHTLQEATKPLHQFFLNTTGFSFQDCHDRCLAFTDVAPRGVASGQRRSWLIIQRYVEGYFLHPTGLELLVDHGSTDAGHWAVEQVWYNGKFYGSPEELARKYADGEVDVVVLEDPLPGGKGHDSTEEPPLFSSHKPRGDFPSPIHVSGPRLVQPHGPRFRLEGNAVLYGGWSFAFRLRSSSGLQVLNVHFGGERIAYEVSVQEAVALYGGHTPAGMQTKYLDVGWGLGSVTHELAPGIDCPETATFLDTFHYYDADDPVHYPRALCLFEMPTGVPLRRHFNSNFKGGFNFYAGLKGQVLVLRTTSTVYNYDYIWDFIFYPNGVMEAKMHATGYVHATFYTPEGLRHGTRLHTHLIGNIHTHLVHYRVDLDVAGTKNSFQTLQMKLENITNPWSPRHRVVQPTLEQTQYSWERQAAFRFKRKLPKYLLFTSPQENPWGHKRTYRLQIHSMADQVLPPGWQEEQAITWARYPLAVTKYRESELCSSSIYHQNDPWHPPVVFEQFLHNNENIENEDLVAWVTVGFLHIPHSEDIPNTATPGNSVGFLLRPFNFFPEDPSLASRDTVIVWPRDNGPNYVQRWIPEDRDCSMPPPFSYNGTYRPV

SMILES	IC50 [1] [nM]	IC50 [2] [nM]
NC/C(=C\F)COc1ccc2c(c1)CCN(CC(N)=O)C2=O [US12258317, Example 1]	6.29	> 1000
NC/C(=C/F)COc1ccc2c(c1)CCN(CC(N)=O)C2=O [US12258317, Example 2]	2.2	
